Measurements taken from a melting point compilation (Tetko et al.).

Details: a range is the spread between reports

Row | melting point [°C] | Structure (SMILES)
1 | 104 to 108 | Cc1ccccc1C(=O)O
2 | 103 to 104 | BrC1c2ccccc2-c2ccccc21
3 | 33 to 36 | O=[N+]([O-])c1ccc(F)cc1O
4 | 32 to 33 | c1csc(-c2cccs2)c1
5 | 48 to 50 | O=C=Nc1cccc(N=C=O)c1
6 | 36.5 to 39 | CC(C)(C)c1cccc(C(C)(C)C)c1O
7 | 167 to 168 | Cc1c(C(=O)O)cnn1-c1ccccc1
8 | 148 | CC(=O)NC12CC3CC(CC(C3)C1)C2
9 | 126 to 129 | Nc1ccc(O)c([N+](=O)[O-])c1
10 | 214 to 217 | O=C(O)c1ccc(O)cc1
11 | 105 to 106 | O=C(O)c1cccc(C(F)(F)F)c1
12 | 7 to 8 | O=C1CCCc2ccccc21
13 | 80 to 81 | OCc1ccccc1Br
14 | -22 to -21.5 | Clc1cccc(Br)c1
15 | -40 to -39.8 | Cc1cccc(Br)c1
16 | 121 to 124 | NNC(=O)c1ccccc1[N+](=O)[O-]
17 | 115 to 117 | O=Cc1ccc(C=O)cc1
18 | 223 to 224 | Cc1cc(C2(c3ccc(O)c(C)c3)OC(=O)c3ccccc32)ccc1O
19 | 109 to 110 | CCc1ccc2c(c1)C(=O)c1ccccc1C2=O
20 | -6 to -5.5 | Fc1cc(F)cc(F)c1
21 | 77 to 78 | CC#CC(=O)O
22 | 224 to 227 | N#Cc1ccc(C(N)=O)cc1
23 | -61 to -60.5 | CCCCCCCCC(=O)Cl
24 | 82 to 84 | Cc1c(Br)cc(Br)c(O)c1Br
25 | 154 | O=c1cc(CO)occ1O
26 | 114 to 115 | CC(=O)Nc1ccccc1

Row | melting point [°C] | Structure (SMILES)
27 | 40 to 40.5 | CC(=O)Oc1ccccc1[N+](=O)[O-]
28 | 160 | Cc1ccnc(N)n1
29 | 84 to 88 | Oc1ccc(NCc2ccccc2)cc1
30 | 118 to 119 | OCc1ccc(CO)cc1
31 | 7.5 to 8 | CC(=O)c1cccc(Br)c1
32 | 156 to 161 | O=C(O)Cc1c(Cl)ccc(Cl)c1Cl
33 | 146 to 147 | COc1cc(Cl)ccc1C(=O)O
34 | 181 to 186 | CN(C)CC(=O)O
35 | 147 to 148 | CCCCOc1ccc(C(=O)O)cc1
36 | 154 to 156 | OC1c2ccccc2-c2ccccc21
37 | 174 to 175 | CCC(C)C(=O)OC1CC(C)C=C2C=CC(C)C(CCC3CC(O)CC(=O)O3)C21 (stereo not drawn)
38 | -8 to -7.8 | OCCc1ccccn1
39 | 45.7 to 49 | Cc1cccc(C)c1O
40 | 143 to 144 | Nc1cc([N+](=O)[O-])ccc1O
41 | 156 | NC(=O)c1ccc(F)cc1
42 | 85 to 87 | OCc1ccccc1O
43 | -9 to -7 | COC(=O)c1ccccc1O
44 | 55 to 56 | Cc1cc(C)c(S(=O)(=O)Cl)c(C)c1
45 | 38 to 40 | Cc1ccc2sc(C)nc2c1
46 | 33 to 36 | CC(C)(C)C(=O)O
47 | 144 to 146 | c1ccc(N=C(Nc2ccccc2)Nc2ccccc2)cc1
48 | 70 to 71.5 | c1ccc(CSSCc2ccccc2)cc1
49 | 82 to 87 | CCOC(=O)c1cc(C)n[nH]1
50 | 146 to 149 | O=S(=O)(Cc1ccccc1)c1ccccc1
51 | 132 to 134 | Cc1cc(=O)cc(C)o1
52 | 88.5 to 89 | Cc1cc(C=O)c(C)n1-c1ccccc1

Row | melting point [°C] | Structure (SMILES)
53 | 54 to 54.5 | COC(=O)c1cccc(I)c1
54 | 74 to 76.7 | OCCOc1ccc2ccccc2c1
55 | 316 to 317 | Cc1c[nH]c(=O)[nH]c1=O
56 | 128 to 129 | C=CC(=O)NC(C)(C)C
57 | 64 to 65 | O=C(O)CSc1ccccc1
58 | 143 to 144 | COc1cc(CC(=O)O)ccc1O
59 | 178 to 180 | CC1(C)C2CC[C@@]1(C)C(=O)C2
60 | 40.9 to 42 | Oc1ccccc1
61 | -21.5 to -21 | c1ccc2c(c1)CCO2
62 | -71 to -70.9 | CCc1ccc(C)nc1
63 | 60.9 to 61 | O=[N+]([O-])c1cccc(S(=O)(=O)Cl)c1
64 | 141 to 142 | O=C(O)c1cccc([N+](=O)[O-])c1
65 | 109 to 110 | CS(C)(=O)=O
66 | 79 to 82.5 | CC(C)(O)C(=O)O
67 | 79 to 81 | Cc1cc(N)ccc1Br
68 | 128 to 129 | CCCCNC(=O)NS(=O)(=O)c1ccc(C)cc1
69 | 44.5 to 45 | CC(=O)Oc1cccc2ccccc12
70 | 60 to 61.3 | CCCCCCCCCCCCCCCCC(=O)O
71 | 225 to 226 | O=C(O)c1ccc(O)cc1O
72 | 187 to 188 | O=C(O)c1cccc(I)c1
73 | 112 to 115 | O=[N+]([O-])c1ccc(O)cc1
74 | 82 to 83 | COc1ccc(Cl)cc1N
75 | -95 to -92 | CCCOC(C)=O
76 | -27.2 to -27 | Cc1cccc(I)c1
77 | 102 to 104 | COC(=O)/C=C/C(=O)OC
78 | -63.1 to -63 | CCc1ccccn1

Row | melting point [°C] | Structure (SMILES)
79 | 103 to 107 | COc1cccc(C(=O)O)c1
80 | -31.1 to -31 | CC(=O)OCCc1ccccc1
81 | 159 to 160 | Cc1ncc([N+](=O)[O-])n1CCO
82 | 278 to 283 | Oc1ccc(-c2ccc(O)cc2)cc1
83 | -42 to -41.5 | Fc1ccccc1I
84 | 91 to 92 | Brc1ccc(I)cc1
85 | 54 to 57 | Clc1ccc(I)cc1
86 | 56.5 to 58 | COc1cc(N)ccc1C
87 | 11 to 12 | CCCCCCCCCCCCCCCC(=O)Cl
88 | 171 to 174 | O=C(O)c1cc(Cl)ccc1O
89 | 81 to 83 | COc1ccc(O)cc1OC
90 | 69 to 70 | c1ccc(CN(Cc2ccccc2)c2ccccc2)cc1
91 | 133 to 135 | O=C(O)/C=C/c1ccccc1
92 | 274 to 276 | O=c1cn[nH]c(=O)[nH]1
93 | 137 to 140 | Cc1ncc([N+](=O)[O-])n1C
94 | 53.9 to 55.1 | CCCCCCCCCCCCCC(=O)O
95 | 70 to 74 | CCN(CC)c1ccc2c(C)cc(=O)oc2c1
96 | 32 to 35 | O=C(Cc1ccccc1)Cc1ccccc1
97 | 119 to 121 | c1ccc(P(CP(c2ccccc2)c2ccccc2)c2ccccc2)cc1
98 | 165 to 166 | Cc1ccc(C(=O)O)cc1C
99 | 86 to 87 | CS(=O)(=O)c1ccccc1
100 | 127 to 130 | CCC(=O)c1cc(F)c(O)c(F)c1
101 | -6.5 to -6 | C=CCCCCC(=O)O

Second part, the molecule before the results:

Row | Structure (SMILES) | melting point [°C]
102 | COC(=O)C(Cl)(Cl)Cl | -18 to -17.5
103 | CCCCCCCCCCCCCCC | 9.9 to 10
104 | Cc1cccc(C)c1N | 8 to 12
105 | FC(C(F)(F)F)C(F)(F)F | -131 to -127
106 | BrCCCCCCCCCCCCBr | 40 to 41
107 | CN(C)c1ccc(C(=O)c2ccc(N(C)C)cc2)cc1 | 175 to 179
108 | CCCCC(=O)c1ccccc1 | -9.4 to -9
109 | S=C=S | -112
110 | N#CCCCl | -51 to -50
111 | CCCCS(=O)(=O)CCCC | 44 to 45
112 | CCCCCCCCCCCCS | -8 to -7
113 | O=C(CBr)c1ccc(Br)cc1 | 109 to 111
114 | CCCCCCCCCCCCCCCCCCS | 30 to 32
115 | CCOS(=O)(=O)OCC | -25 to -24
116 | C=CCC1(C(C)CCC)C(=O)NC(=O)NC1=O (stereo not drawn) | 95 to 100
117 | ClC/C=C/CCl | 2 to 3.5
118 | CNC1=Nc2ccc(Cl)cc2C(c2ccccc2)=[N+]([O-])C1 | 236
119 | C=CCCCCCCCCCO | -3 to -2
120 | CC1(O)CCCCC1 | 25 to 26
121 | CN | -93.4 to -93
122 | ClC(Cl)(Cl)c1ccccc1 | -8 to -4
123 | ClC(Cl)=C(Cl)Cl | -22.3 to -22
124 | C=CCC | -185
125 | C=C1C2CCC(C2)C1(C)C (stereo not drawn) | 50 to 52

Row | Structure (SMILES) | melting point [°C]
126 | CC=C(C)CCC | -119 to -118
127 | CON(C)C(=O)Nc1ccc(Cl)c(Cl)c1 | 93 to 93.5
128 | Oc1c(Br)c(Br)c(Br)c(Br)c1Br | 226 to 230
129 | CC=C(C)CC | -138 to -135
130 | NCCCCN | 27 to 27.5
131 | Clc1ccc(C(c2ccccc2Cl)C(Cl)(Cl)Cl)cc1 (stereo not drawn) | 74.2 to 75
132 | CC(C)S | -131 to -130
133 | Nc1c(Cl)c(Cl)c(Cl)c(Cl)c1Cl | 232 to 235
134 | N#Cc1ccc(C=O)cc1 | 100 to 102
135 | COc1ccccc1[N+](=O)[O-] | 9.4 to 10.5
136 | S=C=Nc1ccc(Cl)cc1 | 45 to 46
137 | ClCCCBr | -59 to -58.9
138 | CC(C)C(C)(C)C(C)C | -102
139 | Oc1ccc(Cc2ccc(O)cc2)cc1 | 161 to 162
140 | Cc1ccc(C(=O)Cl)cc1 | -3 to -2
141 | Nc1cc(Cl)ccc1Cl | 48 to 50
142 | O=[N+]([O-])c1ccc2c3c(cccc13)CC2 | 103 to 104
143 | OCC(O)C(O)CO (stereo not drawn) | 122
144 | CCCCOC=O | -92 to -91.5
145 | NCCNCCN | -40 to -35
146 | CC(C)(C)C | -17 to -16.4
147 | OCCN(CCO)CCO | 19.5 to 20.5
148 | ClC(Cl)(Cl)Cl | -23 to -22.9
149 | CCCCCCCC#N | -46 to -45

Row | Structure (SMILES) | melting point [°C]
150 | OCCCCCO | -18 to -16
151 | CC(C)[N+](=O)[O-] | -93 to -91.3
152 | CCCCc1ccccc1 | -88 to -87.9
153 | O=c1[nH]c2ccccc2o1 | 138 to 140
154 | CCCCCI | -86 to -85.6
155 | CCCC1CCCCC1 | -95 to -94.9
156 | Oc1ccc(I)cc1 | 92 to 94
157 | OCCCO | -27 to -26
158 | CN=C=S | 32 to 36
159 | CCCCCCC(O)CCCC (stereo not drawn) | -4 to -3.5
160 | O=Cc1ccc(C(F)(F)F)cc1 | 1.5 to 2
161 | NNC=O | 55 to 57
162 | C=CCC(C)(C)C | -137
163 | COC(F)(F)C(Cl)Cl | -36 to -35
164 | N#CCC(=O)c1ccccc1 | 80.5 to 83
165 | Oc1ccc(Br)cc1Br | 37 to 40
166 | COc1ccc(C=O)cc1 | -1 to 1
167 | CC(C)c1ccc(Cl)cc1 | -12.3 to -12
168 | OC1CCCCC1 | 21 to 25.9
169 | BrCC(Br)c1ccccc1 (stereo not drawn) | 72 to 75
170 | N#Cc1c[nH]cc1-c1cccc2c1OC(F)(F)O2 | 199
171 | CCN(C(C)C)C(C)C | -50 to -46
172 | C=C[Si]1(C)O[Si](C)(C=C)O[Si](C)(C=C)O[Si](C)(C=C)O1 (stereo not drawn) | -43.5 to -43
173 | NNc1ccccc1 | 19 to 19.6
